Here are results for 5 compounds from article PMC6271520, “Isolation and Characterization of an α-Glucosidase Inhibitor from Musa spp. (Baxijiao) Flowers” (Molecules, 2014).

In assay [1] the target is α-glucosidase. Details: method as in doi:10.1016/j.phytol.2013.08.005. Particulars: β-sitosterol isolated from Chrozophora plicata; cited from earlier work.
Assay [2] deals with T1, α-Glucosidase from Bacillus stearothermophilus (Geobacillus stearothermophilus, UniProt A0ACH1E9U3). Briefly: α-glucosidase inhibitory activity assay (pNPG substrate, PNP release at 405 nm). The following applies: for IC50: pH 6.8, 37 °C, 2.5 mmol/L pNPG. The format is biochemical. As for the experimental part:
Louis, MO, USA). […] All the reagents were of analytical grade. […] Then 0.5 mL of 2.5 mmol/L p-nitrophenyl-α-D-glucopyranoside as the substrate was added to the mixture to start the reaction. The reaction was incubated at 37 °C for 15 min and stopped by adding 1 mL 0.2 mol/L sodium carbonate solution. The α-glucosidase activity was determined by measuring the release of PNP at 405 nm. For the inhibitory activity assay, crude ethanol extracts were dissolved in 50% aqueous dimethyl sulfoxide, while the chloroform, ethyl acetate, and n-butanol fractions and puriﬁed compounds were dissolved in dimethyl sulfoxide. […] The inhibition of the test sample on α-glucosidase was calculated as follows: […] where Acontrol: Absorbance for 100% enzyme activity (+enzyme), Asample: Test sample (+enzyme + inhibitor) and Abackground: Inhibitor background absorbance (−enzyme + inhibitor).

Assay [3] has as its target T1, α-Glucosidase from Bacillus stearothermophilus. Briefly: Lineweaver–Burk plot analysis of inhibition kinetics of α-glucosidase. The format is biochemical. The following applies: for mode of inhibition: Lineweaver–Burk plot, varying pNPG; for Ki: from Vmax at 12.5 and 50.0 mg/L (compound 5), 400 and 800 mg/L (compounds 3 and 4). As for the experimental part:
The mechanism of the binding of compounds 3, 4 and 5 to α-glucosidase was further studied.
The Ki value was calculated using the values of Vmax obtained at 12.5 and 50.0 mg/L for compound 5 and the values of Vmax obtained at 400 and 800 mg/L for compounds 3 and 4, respectively.
To determine the kinetic mode of inhibition of isolated α-glucosidase inhibitors, Lineweaver–Burk plot analysis was performed. This kinetics study was carried out in the presence and absence of inhibitors with varying concentrations of 4-NPGP as the substrate. The mode of inhibition of the test compounds was assessed on the basis of the inhibitory effects on Km (dissociation constant) and Vmax (maximum reaction velocity) of the enzyme determined using a Lineweaver-Burk plot, which is the double reciprocal plot of the enzyme reaction velocity (V) versus the substrate (p-nitrophenyl β-D-glucopyranoside, pNPG) concentration (1/V versus 1/[pNPG]).

Assay [4] deals with α-glucosidase. Details: method as in PMID 17270224. The following applies: vanillic acid from stem bark of Fagara tessmannii; cited from earlier work.
Where [5] appears, read: read-out: IC50 (mg/L) (converted).

Where two headings read alike, the source gives them in different places.

T1 sequence (A0ACH1E9U3 entry or part of it): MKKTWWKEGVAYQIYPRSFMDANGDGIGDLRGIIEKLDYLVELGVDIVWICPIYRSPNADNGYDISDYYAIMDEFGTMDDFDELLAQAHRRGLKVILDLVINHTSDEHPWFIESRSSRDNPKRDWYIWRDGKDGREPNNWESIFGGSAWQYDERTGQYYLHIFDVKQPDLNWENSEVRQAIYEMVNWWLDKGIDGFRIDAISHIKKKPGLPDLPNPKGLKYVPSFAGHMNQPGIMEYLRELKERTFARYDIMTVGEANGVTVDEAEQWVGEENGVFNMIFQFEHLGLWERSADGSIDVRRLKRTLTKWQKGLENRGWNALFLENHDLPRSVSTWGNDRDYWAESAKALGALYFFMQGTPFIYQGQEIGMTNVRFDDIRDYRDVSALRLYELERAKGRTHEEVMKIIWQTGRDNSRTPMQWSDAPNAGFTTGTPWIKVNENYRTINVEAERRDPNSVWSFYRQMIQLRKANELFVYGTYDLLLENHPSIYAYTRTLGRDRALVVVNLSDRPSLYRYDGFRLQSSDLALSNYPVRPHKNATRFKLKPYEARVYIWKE

For `CC[C@H](CC[C@@H](C)[C@H]1CC[C@H]2[C@@H]3CC=C4C[C@@H](O)CC[C@]4(C)[C@H]3CC[C@]12C)C(C)C` [Compound 3, β-Sitosterol], the IC50 was 287.1 ± 0.75 µM in assay [1] and 684 µM in assay [2] (read-out: IC50 (mg/L)). Further, in assay [3], the mode of inhibition result is given as “competitive inhibitors”. Further, the Ki in assay [3] (read-out: inhibition constant (Ki)) was 48.4 µM.
Turning to `COc1cc(/C=C/C(=O)O)ccc1O` [Compound 2, Ferulic acid], the IC50 in assay [2] (read-out: IC50 (mg/L)) was 6480 µM.
`C[C@H]1O[C@H](O[C@H]2[C@H](O)[C@@H](O)[C@@H](O[C@H]3[C@H](O)[C@@H](O)C(O)O[C@@H]3CO)O[C@@H]2CO)[C@H](O)[C@@H](O)[C@@H]1N[C@H]1C=C(CO)[C@@H](O)[C@H](O)[C@H]1O` (stereo partly drawn) [Acarbose, reference compound]: the inhibition at 1500 µg/mL in assay [2] (at 1.5 mg/mL, read-out: percent inhibition against α-glucosidase) came out at 56.4%. Moreover, the IC50 in assay [2] (setting [5]) is 1550 µM.
Take `COc1cc(C(=O)O)ccc1O` [Compound 1, Vanillic acid]: the values for the IC50 in assay [2] (read-out: IC50 (mg/L)) and in assay [4] were 11900 µM and 69.4 ± 0.8 µM, respectively.
Take `CC[C@H](CC[C@@H](C)[C@H]1CC[C@H]2[C@@H]3CC=C4C[C@@H](O[C@@H]5O[C@H](CO)[C@@H](O)[C@H](O)[C@H]5O)CC[C@]4(C)[C@H]3CC[C@]12C)C(C)C` [Compound 4, Daucosterol]: the IC50 in assay [2] (setting [5]) was 429 µM. In assay [3], the mode of inhibition result is “competitive inhibitors”. Further, the Ki in assay [3] (read-out: inhibition constant (Ki) (converted)) is 4.06 µM.

By Ki is commonly meant a dissociation constant, usually derived from enzyme kinetics or from competition with a known ligand. Broadly, the inhibition is the percentage by which the read-out fell short of the control.
